Measured values taken from patent US20220175722A1, “DEGRADERS OF FIBROBLAST GROWTH FACTOR RECEPTOR 2 (FGFR2)” (DANA-FARBER CANCER INSTITUTE, INC., priority 2019, published 2022).
Read-outs that look alike come from different tables or passages of the source.

Key:
FGFR2 = assay: Rescue of degrader-induced FGFR2 degradation by pretreatment, immunoblot in Kato III cells; format: cell-based; details: for rescue of FGFR2 degradation induced by bispecific compound 20: pretreated 2 h (10 μM FIIN2, 10 M control-1, 0.5 M Bortezomib, 1 μM MLN4924), then 1 M bispecific compound 20 for 4 h; for rescue of FGFR2 degradation induced by bispecific compound 6: pretreated 2 h (10 μM BGJ398, 10 μM control-1, 0.5 M Bortezomib, 1 μM MLN4924), then 0.1 M bispecific compound 6 for 4 h
Experimental: Kato III cells were pretreated with 10 μM BGJ398 (the parental compound and known FGFR1/2/3 inhibitor; available from, e.g., MedChemExpress®, Cat. No. HY-13311, Monmouth Junction, N.J.), 10 μM control-1 (VHL ligand), 0.5 M Bortezomib (a proteasome inhibitor; available from, e.g., Millipore Sigma®, Cat. No. 179324-69-7, Burlington, Mass.), and 1 μM MLN4924 (a neddylation inhibitor; available from, e.g., MedChemExpress®, Cat. No. HY-70062, Monmouth Junction, N.J.), for 2 h, and then treated with 0.1 M bispecific compound 6 for 4 h. Cells were lysed and immunoblotted as described above with antibodies to FGFR2 and β-Actin.
Kato III cells were pretreated with 10 μM FIIN2 (the parental compound and known FGFR1/2/3/4 inhibitor; available from, e.g., Selleckchem, Cat. No. S7714, Houston, Tex.), 10 M control-1 (VHL ligand), 0.5 M Bortezomib (a proteasome inhibitor; available from, e.g., Millipore Sigma, Cat. No. 179324-69-7, Burlington, Mass.), and 1 μM MLN4924 (a neddylation inhibitor; available from, e.g., MedChemExpress, Cat. No. HY-70062, Monmouth Junction, N.J.), for 2 h, and then treated with 1 M bispecific compound 20 for 4 h. Cells were lysed and immunoblotted as described above with antibodies to FGFR2 and β-Actin.

CDK9 = target: T1, CDK9 (Homo sapiens, UniProt P50750); assay: CDK9 degradation by immunoblot (positive control); format: cell-based; details: 16 hours
T1 construct: endogenous in cells; host or cells: Kato III; CCLP1; JHH7
T1 sequence (P50750 whole entry): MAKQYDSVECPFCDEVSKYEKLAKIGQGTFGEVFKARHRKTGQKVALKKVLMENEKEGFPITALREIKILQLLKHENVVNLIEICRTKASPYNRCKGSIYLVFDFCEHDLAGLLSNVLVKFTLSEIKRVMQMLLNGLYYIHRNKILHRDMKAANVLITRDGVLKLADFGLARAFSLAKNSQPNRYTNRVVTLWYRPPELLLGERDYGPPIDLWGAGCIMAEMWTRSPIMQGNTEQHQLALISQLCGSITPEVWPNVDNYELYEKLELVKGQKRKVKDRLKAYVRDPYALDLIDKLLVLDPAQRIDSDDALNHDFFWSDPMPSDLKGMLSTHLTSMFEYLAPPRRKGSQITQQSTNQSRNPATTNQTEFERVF
T1 sequence (O60563 whole entry partner): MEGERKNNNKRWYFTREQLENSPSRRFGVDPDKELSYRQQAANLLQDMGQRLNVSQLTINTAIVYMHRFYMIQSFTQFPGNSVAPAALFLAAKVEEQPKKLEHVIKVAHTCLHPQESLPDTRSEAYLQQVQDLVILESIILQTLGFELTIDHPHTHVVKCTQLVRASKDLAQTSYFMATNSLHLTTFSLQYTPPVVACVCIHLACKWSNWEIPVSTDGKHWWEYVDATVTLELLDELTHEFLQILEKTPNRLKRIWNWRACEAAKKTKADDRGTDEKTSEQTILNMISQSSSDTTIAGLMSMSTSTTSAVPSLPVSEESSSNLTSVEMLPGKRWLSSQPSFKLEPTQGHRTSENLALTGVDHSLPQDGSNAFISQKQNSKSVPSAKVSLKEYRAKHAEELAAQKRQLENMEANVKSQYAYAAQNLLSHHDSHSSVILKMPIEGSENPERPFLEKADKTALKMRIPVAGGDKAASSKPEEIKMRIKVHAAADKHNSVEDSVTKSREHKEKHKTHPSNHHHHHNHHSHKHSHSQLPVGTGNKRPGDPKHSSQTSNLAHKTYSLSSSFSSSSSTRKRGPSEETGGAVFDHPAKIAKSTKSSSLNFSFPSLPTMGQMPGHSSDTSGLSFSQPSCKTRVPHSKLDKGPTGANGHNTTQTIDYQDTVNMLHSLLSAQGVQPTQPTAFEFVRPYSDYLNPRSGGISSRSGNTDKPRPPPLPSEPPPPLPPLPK
Experimental: Kato III cells were treated with 0, 0.1, 1, or 10 M of bispecific compound 6 or 0.5 M THAL-SNS-032 (a known CDK9 degrader and positive control for CDK9 degradation; available from, e.g., MedChemExpress®, Cat. No. HY-10008, Monmouth Junction, N.J.) for 16 hours. Cells were then lysed in RIPA buffer (Millipore Sigma®) containing protease/phosphatase inhibitor cocktail (Roche®). The protein concentrations were measured by bicinchoninic acid assay (BCA) analysis (Pierce™). Equal amounts of protein were resolved by 4-12% Tris-Base gels (Invitrogen™), and then transferred to the Immuno-Blot PVDF membrane (Bio-Rad®), and immunoblotted with primary antibodies against FGFR2 (cell signaling), CDK9 (cell signaling) and […] (cell signaling), and then immunoblotted with IRDye®800-labeled goat anti-rabbit IgG and IRDye®800-labeled goat anti-mouse IgG (LI-COR®) secondary antibodies. The membranes were detected on Odyssey CLx system.
CCLP1 cells were treated with 0, 0.1, 1, or 10 M of bispecific compound 6 or 0.5 μM THAL-SNS-032 for 16 hours, and then lysed and immunoblotted with antibodies to FGFR1 (cell signaling), CDK9, and β-Actin.
JHH7 cells were treated with 0, 0.1, 1, or 10 M of bispecific compound 6 or 0.5 M THAL-SNS-032 for 16 hours, and then lysed and immunoblotted with antibodies to FGFR3 (cell signaling), FGFR4 (cell signaling), CDK9, and β-Actin.

Kato III cells = assay: cells; details: 72 h
Experimental: (§1) Kato III cells were treated with bispecific compound 6 or BGJ398 at the indicated concentrations for 72 h. Cell viability was determined using Cell-Titer Glo (Promega™) according to the manufacturer's instructions. IC50 values (defined as the concentration of compound needed to reduce cell viability to 50% of the vehicle DMSO control) were estimated by using GraphPad Prism 7.0 (GraphPad Prism®).
Cell viability was determined using Cell-Titer Glo (Promega™) according to the manufacturer's instructions. IC50 values were estimated by using GraphPad Prism 7.0 (GraphPad Prism®).
as §1, with “6, bispecific compound 7” for “6”, “(Promega™),” for “(Promega™)”

[1] = test system: FGFR alteration (fusions, amplifications, or point mutations); details: cited from earlier work
[2] = patients with advanced refractory ICC with an FGFR alteration

**Q.** For `C=CC(=O)Nc1ccc(CN2C(=O)N(c3cc(OC)cc(OC)c3)Cc3cnc(Nc4ccc(N5CCN(C)CC5)cc4)nc32)cc1` [FIIN2], which “rescue of FGFR2 degradation induced by bispecific compound 20” value (“rescue … by bispecific compound 20” for short) (FGFR2) is on record?
**A.** The value was “rescued the FGFR2 degradation”.

**Q.** For `NS(=O)(=O)OC[C@@H]1C[C@@H](n2ccc3c(N[C@H]4CCc5ccccc54)ncnc32)C[C@@H]1O` [MLN4924], which “rescue of FGFR2 degradation induced by bispecific compound 6” value (FGFR2) is on record?
**A.** Its value is “rescued the FGFR2 degradation”.

**Q.** And the “rescue … by bispecific compound 20” value (FGFR2)?
**A.** Its value is “rescued the FGFR2 degradation”.

**Q.** Which CDK9 degradation (CDK9; CCLP1 cells, 0.5 μM) does the source give for `CC(C)(C)c1cnc(CSc2cnc(NC(=O)C3CCN(CC(=O)NCCOCCOCCOCCNc4cccc5c4C(=O)N(C4CCC(=O)NC4=O)C5=O)CC3)s2)o1` (stereo not drawn) [THAL-SNS-032] here?
**A.** The CDK9 degradation was “induced CDK9 degradation”.

**Q.** And the CDK9 degradation (CDK9; JHH7 cells, 0.5 µM)?
**A.** Its CDK9 degradation is “induces CDK9 degradation”.

**Q.** What about the CDK9 degradation (CDK9; Kato III cells, 0.5 µM) of the same molecule?
**A.** The CDK9 degradation was “induced CDK9 degradation”.

**Q.** With `CC(=O)N[C@H](C(=O)N1C[C@H](O)C[C@H]1C(=O)N[C@@H](C)c1ccc(-c2scnc2C)cc1)C(C)(C)C` [control-1] as the molecule, how does the “rescue of FGFR2 degradation induced by bispecific compound 6” value (FGFR2) read?
**A.** The value was “rescued the FGFR2 degradation”.

**Q.** And the “rescue … by bispecific compound 20” value (FGFR2)?
**A.** Its value is “rescued the FGFR2 degradation”.

**Q.** Which results are given for `CCN1CCN(c2ccc(Nc3cc(N(C)C(=O)Nc4c(Cl)c(OC)cc(OC)c4Cl)ncn3)cc2)CC1` [BGJ398]?
**A.** rescue of FGFR2 degradation induced by bispecific compound 6 (FGFR2): rescued the FGFR2 degradation; IC50 (Kato III cells; Homo sapiens, KATO III, read-out: IC50 (concentration needed to reduce cell viability to 50% of the vehicle DMSO control)): ~1 nM; anti-proliferation effect (Kato III cells; Kato III cells): good anti-proliferation effect; disease control rate (DCR; partial responses+stable disease) ([1]; FGFR2 fusions only): 83.3%; overall response rate (ORR) ([1]; FGFR2 fusions only): 18.8%; Median progression free survival [1, 2]: 5,8 months; disease control rate (DCR; partial responses+stable disease) [1, 2]: 75.4%; overall response rate (ORR) [1, 2]: 14.8%

**Q.** What does the source list for `CC(C)C[C@H](NC(=O)[C@H](Cc1ccccc1)NC(=O)c1cnccn1)B(O)O` [Bortezomib]?
**A.** rescue of FGFR2 degradation induced by bispecific compound 6 (FGFR2): rescued the FGFR2 degradation; rescue of FGFR2 degradation induced by bispecific compound 20 (FGFR2): rescued the FGFR2 degradation
